{"source": "patent US20180036289A1", "about": "(Gilead Sciences, Inc., priority 2016, published 2018)", "system": "cell lines tested", "experiment": "Cell proliferation assay, summary across all cell lines and drugs", "format": "cell-based", "conditions": "compared to primary drug alone", "method": "All cell lines were obtained from the American Type Culture Collection (ATCC) Manassas, Va. (US). Master and working cell banks (MCB and WCB) were prepared by subculturing in ATCC-recommended media and freezing protocols (www.atcc.org). Cell line stocks for the assays were prepared from the WCB. The MCB, WCBs and assay stocks were prepared within respectively 3, 6 and 9 passages of the ATCC vial.\nSolid powders of reference compounds were weighed on a calibrated balance and dissolved in 100% DMSO. DMSO samples were stored at room temperature. At the day of the experiment, the compound stock was diluted in 3.16 fold steps in 100% DMSO to obtain a 9-point dilution series. This was further diluted 31.6 times in 20 mM sterile Hepes buffer pH 7.4. A volume of 5 μl was transferred to the cells to generate a test concentration range from 3.16×10^−5M to 3.16×10^−9 M in duplicate. The final DMSO concentration during incubation was […] in all wells.\nAn assay stock was thawed and diluted in its ATCC recommended medium and dispensed in a 384-well plate, depending on the cell line used, at a concentration of 200-3200 cells per well in 45 μl medium. For each used cell line the optimal cell density is used. The margins of the plate were filled with phosphate-buffered saline. Plated cells were incubated in a humidified atmosphere of 5% CO2 at 37° C. After 24 hours, 5 μl of compound dilution was added and plates were further incubated for another 120 hours. After 120 hours, 25 μl of ATPlite 1Step™ (PerkinElmer) solution was added to each well, and subsequently shaken for 2 minutes. After 10 minutes of incubation in the dark, the luminescence was recorded on an Envision multimode reader (PerkinElmer).\nIC50s were calculated by non-linear regression using IDBS XLfit 5. The percentage growth after 120 h (%-growth) was calculated as follows: 100%×(luminescencet=120h/luminescenceuntreated,t=120h). This was fitted to the ^10log compound concentration (conc) by a 4-parameter logistics curve: %−growth=bottom+(top−bottom)/(1+10^(log IC50-conc)*hill)), where hill is the Hill-coefficient, and bottom and top the asymptotic minimum and maximum cell growth that the compound allows in that assay.", "data": [{"smiles": "CC(C)c1nc(CN(C)C(=O)N[C@@H](CCN2CCOCC2)C(=O)N[C@H](CC[C@H](Cc2ccccc2)NC(=O)OCc2cncs2)Cc2ccccc2)cs1", "note": "[cobicistat]", "values": [{"measurement": "increase in sensitivity to the primary drug, maximum", "setting": "maximum across all experiments", "value": 8.7, "unit": "fold"}, {"measurement": "increase in sensitivity to the primary drug, average", "setting": "on average, across all experiments", "value": 2.9, "unit": "fold"}]}]}
